Experimental data taken from patent US6290974A, “Protein ingredient for carrying lipophilic nutrients” (priority 1998, dated 2001).
Counter-ions that a name gives are not always drawn. Like-named read-outs stand apart in the source and are kept apart here. One block for each compound: values may come before it.

Columns and labels:
β-lactoglobulin (β-Lg) [1] = molecular target: T1, β-lactoglobulin (β-Lg) (Bos taurus, UniProt P02754); assay: Fluorescence titration of β-Lg with ligands (Equation [1]; Kd and n); assay type: binding; conditions: for molecules bound per molecule of protein: per molecule of protein / β-Lg monomer
T1 construct: Isolation of β-Lg from Whey; from tissue; host or cells: whey (milk), purified by bioselective adsorption on N-retinyl-Celite
T1 sequence (P02754 17-178): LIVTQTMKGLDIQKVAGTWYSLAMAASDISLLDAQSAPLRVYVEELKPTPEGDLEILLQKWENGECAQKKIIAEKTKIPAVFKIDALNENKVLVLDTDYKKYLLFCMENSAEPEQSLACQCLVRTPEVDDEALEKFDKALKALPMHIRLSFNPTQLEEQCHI
Experimental: (§1) Fluorescence spectra were recorded at 23 ° C. with a System 3 Scanning Spectrofluorometer (Optical Technology Devices, Inc., Elmsford, N.Y.) using the ratio mode. Excitation and emission spectra were obtained with 1 μM solutions of β-Lg in 50 mM sodium phosphate, pH 7.0, both in the presence and absence of 2 μM concentrations of the various ligands. Titration of β-Lg with the various ligands was quantified by measuring the fluorescence quenching of the protein tryptophanyl residues (excitation at 287 nm, emission measured at 332 nm). The spectrofluorometer cuvette contained 2.5 ml of 1 μM β-Lg in the phosphate buffer to which 2.5-μl increments of the ligand solution in ethanol or ethyl ether were added with a micropipette. Dufour et al., (1990) FEBS Lett. 277, 223. […] Cogan et al., (1976) Eur. J. Biochem. 65, 71.
(§2) The titration can also be followed by measuring the increase in vitamin D or cholesterol fluorescence that was due to energy transfer from the tryptophanyl residue. Thus, with excitation at 287 nm, emission was measured at 412 nm for vitamin D or 390 nm for cholesterol.
The titration data can be used to evaluate the equilibrium dissociation constant and the number of binding sites per monomer as has been previously described. Cogan et al., (1976) Eur. J. Biochem. 65, 71; Dufour and Haertle, (1991) Biochim. Biophys. Acta 1079, 316; Wang et al., (1997) J. Dairy Sci. 80, 1047. The linear regression equation
PT a=(1/n)[RT a/(1-a)]-Kd /n
is used to calculate n, the number of binding sites per molecule of protein and Kd, the apparent dissociation constant. In this equation, PT is total protein concentration, and RT is total ligand concentration.
Cho et al., (1994) J. Biol. Chem. 269, 11102; Dufour and Haertle, (1991) Biochim. Biophys. Acta 1079, 316; Wang et al., (1997) J. Dairy Sci. 80, 1047. […] Cho et al., (1994) J. Biol. Chem. 269, 11102; Dufour and Haertle, (1991) Biochim. Biophys. Acta 1079, 316; Wang et al., (1997) J. Dairy Sci. 80, 1047.
(§3) Possible binding of vitamin D3 to β-Lg was also investigated by recording the fluorescence emission at 412 nm as a function of the excitation wavelength for vitamin solutions with and without added β-Lg (FIG. 4). […] In a titration experiment, the protein fluorescence at 332 nm with excitation at 287 nm was determined as a function of vitamin D3 concentration (FIG. 3). […] Also, the increase of vitamin D3 fluorescence at 412 nm with excitation at 287 nm for varying vitamin concentrations can be plotted according to Equation [1] as shown in FIG. 5B.
Dufour and Haertle, (1991) Biochim. Biophys. Acta 1079, 316; Wang et al., (1997) J. Dairy Sci. 80, 1047.
The potential binding of both cholesterol and 7-dehydrocholesterol to β-Lg was examined by fluorescence spectroscopy, essentially as described above for vitamin D (Example 3).
The titration data were used to calculate the equilibrium dissociation constant (Kd) and the number of binding sites per β-Lg monomer (n), as described in Example 3.

β-lactoglobulin (β-Lg) [2] = molecular target: T1, β-lactoglobulin (β-Lg); assay: Fluorescence emission/excitation spectra of β-Lg with and without ligand; assay type: binding; conditions: for ligand fluorescence at 412 nm with excitation around 287 nm in presence of β-Lg: 2 μM ligand, 1 μM β-Lg, pH 7.0, 23 °C
Experimental: as §1, §2
Binding of hydrophobic ligands in proximity to Trp19 results in energy transfer between this protein residue and the ligand, and thus changes in the fluorescence emission spectra can be used to follow complex formation. Fluorescence emission spectra of β-Lg with and without bound vitamin D2 that result from excitation of tryptophanyl residues at 287 nm are shown in FIG. 1.
as §3
The potential binding of both cholesterol and 7-dehydrocholesterol to β-Lg was examined by fluorescence spectroscopy, essentially as described above for vitamin D (Example 3). […] A plot of the data that were obtained with varying cholesterol concentrations according to Equation [1] from Example 3 was similar to that for vitamin D3, shown in FIG. 5.
Studies were undertaken to evaluate whether other fat-soluble vitamins bind to β-Lg. Fluorescence emission spectra of β-Lg in the presence and absence of vitamin E, vitamin K1, or vitamin K2 were obtained essentially as described in Example 3.

β-lactoglobulin (β-Lg) [3] = molecular target: T1, β-lactoglobulin (β-Lg); conditions: in vitro; cited from earlier work
[4] = 1 μM β-Lg, 50 mM phosphate pH 7.0, 23 °C, triplicate titrations (vitamin D2: five; ergosterol: single)
[5] = β-Lg titration as in Example 3, read-out: Kd, Table 2
[6] = Kd, Table 2, β-Lg titration as in Example 3

Structure (SMILES): C=C1CC[C@H](O)C/C1=C/C=C1\CCC[C@]2(C)[C@@H]([C@H](C)/C=C/[C@H](C)C(C)C)CC[C@@H]12 [Vitamin D2, ergocalciferol]
- mol bound per mol of protein (Example 4) (β-lactoglobulin (β-Lg) [1]): 2 mol~mol^-1
- n (number of binding sites per molecule of protein), Table 1 (β-lactoglobulin (β-Lg) [1]; [4]): 2.00 mol/mol of protein
- Kd (β-lactoglobulin (β-Lg) [1]; 1 μM β-Lg, 50 mM phosphate pH 7.0, 23 °C, triplicate titrations (vitamin D2: five; ergosterol: single), read-out: Kd (apparent dissociation constant), Table 1): 4.91 nM
- ligand concentration at which fluorescence quenching appeared to reach a maximum (β-lactoglobulin (β-Lg) [1]; 1 μM β-Lg, emission 332 nm): ~2 µM
- binding affinity, comparative (in words) (β-lactoglobulin (β-Lg) [1]; compared with other ligands of Table 1 or the retinoids): significantly greater
- affinity of β-Lg relative to that for vitamin A and other retinoids (greater by) (β-lactoglobulin (β-Lg) [1]; compared with vitamin A and other retinoids): about 10 fold
- n (β-lactoglobulin (β-Lg) [1]; quenching at 332 nm, excitation 287 nm, five titrations, 1 μM β-Lg): 2.00±0.16
- Kd (β-lactoglobulin (β-Lg) [1]; quenching at 332 nm, excitation 287 nm, five titrations, 1 μM β-Lg, read-out: Kd): 4.91 ± 3.28 nM
- n, Table 2 (β-lactoglobulin (β-Lg) [1]; β-Lg titration as in Example 3): 2.0 mol/mol β-LG
- Kd (β-lactoglobulin (β-Lg) [1]; [5]): 4.9 nM
- β-Lg fluorescence, 300 to 360 nm (β-lactoglobulin (β-Lg) [2]): quenched
- ligand fluorescence at 412 nm with excitation around 287 nm in presence of β-Lg (β-lactoglobulin (β-Lg) [2]): increased

Structure (SMILES): C=C1CC[C@H](OS(=O)(=O)O)C/C1=C/C=C1\CCC[C@]2(C)[C@@H]([C@H](C)CCCC(C)C)CC[C@@H]12 [Vitamin D3 sulfate, vitamin D3 sulfate]
- Kd (β-lactoglobulin (β-Lg) [1]): 30.3 nM
- mol bound per mol of protein (Example 4) (β-lactoglobulin (β-Lg) [1]): 2 mol~mol^-1
- n (number of binding sites per molecule of protein), Table 1 (β-lactoglobulin (β-Lg) [1]; [4]): 1.74 mol/mol of protein

Structure (SMILES): C=C1CC[C@H](O)C/C1=C/C=C1\CCC[C@]2(C)[C@@H]([C@H](C)CCCC(C)C)CC[C@@H]12 [Vitamin D3, cholecalciferol]
- Kd (β-lactoglobulin (β-Lg) [1]): 36 nM
- n (number of binding sites per molecule of protein), Table 1 (β-lactoglobulin (β-Lg) [1]; [4]): 2.01 mol/mol of protein
- Kd (β-lactoglobulin (β-Lg) [1]; [6]): 36 nM
- molecules bound per molecule of protein (β-lactoglobulin (β-Lg) [1]): 2 molecules
- n, Table 2 (β-lactoglobulin (β-Lg) [1]; β-Lg titration as in Example 3): 2.0 mol/mol β-LG
- ligand fluorescence at 412 nm with excitation around 287 nm in presence of β-Lg (β-lactoglobulin (β-Lg) [2]): increased intensity

Structure (SMILES): Cc1c(C)c2c(c(C)c1O)CCC(C)(CCCC(C)CCCC(C)CCCC(C)C)O2 (stereo not drawn) [Vitamin E, α-tocopherol]
- n values, molecules bound per β-Lg monomer (Example 6) (β-lactoglobulin (β-Lg) [1]): 1
- Kd (β-lactoglobulin (β-Lg) [1]; Kd values (Example 6)): 91 nM
- Kd (β-lactoglobulin (β-Lg) [1]; [6]): 91 nM
- Kd (β-lactoglobulin (β-Lg) [1]; order of magnitude of Kd (Example 6)): ~1 nM
- n, Table 2 (β-lactoglobulin (β-Lg) [1]; β-Lg titration as in Example 3): 1.0 mol/mol β-LG
- β-Lg fluorescence, 280 to 300 nm (β-lactoglobulin (β-Lg) [2]): increase
- β-Lg fluorescence, 300 to 360 nm (β-lactoglobulin (β-Lg) [2]): no change

- n values, molecules bound per β-Lg monomer (Example 6) (β-lactoglobulin (β-Lg) [1]): 1.9
- molecules bound per molecule of protein (β-lactoglobulin (β-Lg) [1]): ~2 molecules
- Kd (β-lactoglobulin (β-Lg) [1]; read-out: Kd values (Example 6)): 90 nM
- Kd (β-lactoglobulin (β-Lg) [1]; read-out: order of magnitude of Kd (Example 6)): ~1 nM
- n, Table 2 (β-lactoglobulin (β-Lg) [1]; β-Lg titration as in Example 3): 1.9 mol/mol β-LG
- Kd (β-lactoglobulin (β-Lg) [1]; [5]): 90 nM
- β-Lg fluorescence, 280 to 300 nm (β-lactoglobulin (β-Lg) [2]): increase
- β-Lg fluorescence, 300 to 360 nm (β-lactoglobulin (β-Lg) [2]): quenched
Structure (SMILES): CC1=C(C/C=C(\C)CCC[C@H](C)CCC[C@H](C)CCCC(C)C)C(=O)c2ccccc2C1=O [Vitamin K1, 2-methyl-3-phytyl-1,4-napthho-quinone]

Structure (SMILES): CC1=CC(=O)c2ccccc2C1=O [Vitamin K3, menadione]
- β-Lg fluorescence, 300 to 360 nm (β-lactoglobulin (β-Lg) [2]): No quenching
- binding in the β-Lg calyx (β-lactoglobulin (β-Lg) [2]; inferred from absence of quenching): does not bind

Structure (SMILES): Cc1c2ccncc2c(C)c2c1[nH]c1ccccc12 [ellipticine]
- binding to β-Lg reported (in words) (β-lactoglobulin (β-Lg) [3]): reported to bind

Structure (SMILES): C=CC1=C(C)c2cc3[nH]c(cc4nc(cc5[nH]c(cc1n2)c(C)c5CCC(=O)O)C(CCC(=O)O)=C4C)c(C)c3C=C [protoporphyrin IX]
- binding to β-Lg reported (in words) (β-lactoglobulin (β-Lg) [3]): reported to bind
